Here are results for 24 compounds from PubChem BioAssay (NCI).

Several values for one entry are separate records, joined by “and”; a condition that tells them apart may be missing. Equal values may be shown once.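 96-well plates; 48 h exposure; 5 concentrations. Endpoints by linear interpolation between flanking doses. Not reached: highest tested concentration assigned. At the GI50, growth is halved. TGI marks complete inhibition of growth.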

What all share (test): NCI-60 cell line screen, 48 h
The subject of assay [1] is DLD-1 colon.
Assay [2] concerns DMS 273 small cell lung.
Assay [3] concerns HOP-18 NSCLC.
Assay [4] concerns LXFL 529 NSCLC.
The test system of assay [5] is M19-MEL melanoma.
Assay [6] has as its system RXF-631 renal.
The subject of assay [7] is SNB-78 CNS.
Assay [8] concerns MDA-N.
Assay [9] concerns XF 498 CNS.

As for `O=C(CC(=O)C1CCOC1=O)C(=O)Nc1cccc(Cl)c1` (stereo not given), the TGI in assay [1], in [2], in assay [3], in assay [4], in [5] and in assay [6] was > 100 µM throughout. Moreover, the TGI in assay [7] is > 100 µM.
Take `CN(C)CCNCCN`: in [8], the TGI was > 100 µM.
Regarding `CC(C)CC(C/C=C1/CC(CO)(COC(=O)C(C)(C)C)OC1=O)CC(C)C` (stereo not given), in assay [8], the GI50 was 0.2 µM and 0.849 µM; the TGI is 6.28 µM and 17.6 µM.
Regarding `CCOC(=O)NC(=O)c1cn(C(CC)COC(=O)NCCCCCCNC(=O)OCC(CC)n2cc(C(=O)NC(=O)OCC)c(=O)[nH]c2=O)c(=O)[nH]c1=O` (stereo not given), the TGI in assay [2], in [3], in assay [4], in assay [5] and in [7] was > 100 µM throughout.
`OC(c1cc(-c2ccc(C(F)(F)F)cc2)nc(C(F)(F)F)c1)C1CCCCN1` (stereo not given) yielded a TGI in assay [8] of 3.04 µM.
As for `O=[N+]([O-])c1cccc(C2=NOC(C3CCCCC3)C2)c1` (stereo not given), the TGI in assay [1], in assay [2], in assay [3], in [4], in assay [5] and in assay [6] was > 100 µM in each case. For the same compound, the TGI in assay [7] was > 100 µM.
`CCNC(=O)/C(=C/c1ccc(OC)cc1)c1cc(OC)c(OC)c(OC)c1`: the TGI in assay [1] was > 100 µM; in assay [2], > 100 µM; in assay [3] it was > 100 µM; in assay [4] it was > 100 µM; in assay [5], > 100 µM; in assay [8], 4.26 µM. The values for the TGI in [6], in [7] and in assay [9] were > 100 µM, > 100 µM and 85.3 µM, respectively.
On to `NC(=O)C(=O)CC(=O)c1ccccc1NC1=CC(=O)C(=O)c2ccccc21`, for which the TGI in [1] is > 100 µM; in assay [2], > 100 µM; in assay [3], > 100 µM; in assay [4], > 100 µM; in assay [5], 22.8 µM; in [6], > 100 µM. The TGI in assay [7] and in assay [9] was > 100 µM in each case.
In the case of `Nc1c(-c2ccccc2-c2c(N)[n+]([O-])c3ccccc3[n+]2[O-])[n+]([O-])c2ccccc2[n+]1[O-]`, the TGI is > 100 µM in assay [1]; 38.7 µM in assay [2]; > 86 µM in [3]; > 100 µM in assay [4]; 60.3 µM in assay [5]; > 100 µM in assay [7].
Regarding `CCCC(=O)C1=C(O)C(Cc2c(O)c(C)c(O)c(C(=O)CCC)c2O)=C(O)C(C)(C)C1=O`, the TGI in [8] is > 50 µM.
Regarding `O=C(N/C(=C\c1ccc([N+](=O)[O-])cc1)c1nc2ccccc2[nH]1)c1ccccc1`, the TGI in assay [1], in [3], in assay [4], in [5], in assay [6] and in assay [7] was > 100 µM each time.
As for `NCCNCC1CCNCC1`, in [8], the TGI is > 100 µM.
Regarding `CC(C)CCC[C@@H](C)C1CCC2[C@@H]3CC=C4C[C@@H](C(=O)NCCN(C)C)CC[C@]4(C)C3CC[C@@]21C` (stereo not given in full), the TGI in assay [1] was > 100 µM; in assay [2] it was > 100 µM; in assay [3] it was 66.6 µM; in assay [4] it was > 100 µM; in assay [5] it was 39.7 µM; in assay [7], > 100 µM. Also, the TGI in [9] is 48.7 µM.
Take `Cc1cc2c(c(C(N)=O)c1C)-c1ccccc1C2=O`: the TGI in assay [1], in assay [2], in assay [3], in assay [4], in assay [5] and in assay [6] was > 100 µM in each case. Further, the TGI in assay [7] was > 100 µM.
As to `CC1=C(C#N)C(=O)CC(c2ccc(Cl)cc2)N(C)N1` (stereo not given), the TGI in [1], in assay [3], in [4], in [7] and in assay [9] was > 100 µM each time.
As for `CC(C)=C1CCC(CN(C)C)C1=O` (stereo not given), the TGI was 36.8 µM in assay [1]; 36.6 µM in assay [3]; 25.4 µM in assay [4]; > 100 µM in assay [5]; > 100 µM in assay [6].
Consider `CCC/C=C/C=C/C1CC(O)C(O)C(=O)C1CO` (stereo not given), for which, in assay [8], the TGI is > 100 µM.
Take `Nc1ccccc1O.O.O=C(O)C1[O][Sb][O]C1C(=O)O` (stereo not given): in assay [8], the GI50 is 17.4 µM and the TGI came out at 42.2 µM.
As to `CC(=O)N1CCN(c2ccc(OCC3COC(Cn4ccnc4)(c4ccc(Cl)cc4Cl)O3)cc2)CC1` (stereo not given), the TGI in assay [1] is > 100 µM; in assay [2] it was 61.4 µM; in [3] it was > 100 µM; in [4], > 100 µM; in assay [5], 45.1 µM.
Consider `COC(=O)/C([Se]c1c(C)cc(C)cc1C)=C(/[Se]c1c(C)cc(C)cc1C)C(=O)OC`, for which the TGI in [1], in [2], in assay [3], in assay [4], in assay [5] and in assay [6] was > 100 µM throughout. The TGI in assay [7] is > 100 µM.
For `CC1CC(O)C(=O)C(O[C@@H]2C[C@@H]3CC[C@@H]4[C@H](CC[C@]5(C)C(C6=CC(=O)OC6)CC[C@]45O)[C@@]3(C=O)C[C@H]2O)O1` (stereo not given in full), the TGI in [8] worked out at 0.199 µM.
`CCOCN1COCN(C)C1=O`: the TGI in assay [1], in [2], in assay [3], in assay [5], in [6] and in assay [7] was > 100 µM throughout. The TGI in assay [9] was > 100 µM.
Regarding `Nc1nc(-c2ccc(Cl)c([N+](=O)[O-])c2)cs1`, the TGI in assay [1], in assay [2], in [3], in assay [4], in [5] and in [6] was > 100 µM each time. Further, the TGI is > 100 µM in [7] and 86.6 µM in [9].
Regarding `COc1ccc(C(=O)c2cc(OC)c(OC)c(OC)c2)cc1OC`, the TGI in assay [8] is > 100 µM.
